Reference: ChEMBL document CHEMBL3046926, “Molecular properties prediction, synthesis, and diuretic activity of phenoxy acetic acid bearing pyrazolines” (2013)

Columns and labels:
[1] = tested on: Rattus norvegicus; assay: Induction of diuresis in Rattus norvegicus albino (rat) assessed as normal saline intake at 20 mg/kg, po measured at 5-18 hr after drug administration by standard Lipschitz method (reference value: 2.50 +/-0.036 ml); format: functional
[2] = tested on: Rattus norvegicus; assay: Induction of diuresis action in Rattus norvegicus albino (rat) assessed as urinary excretion at 20 mg/kg, po measured at 0-5 hr after drug administration by standard Lipschitz method against untreated control (reference value: 1 no unit); format: functional, Urine
[3] = tested on: Rattus norvegicus; assay: Induction of diuresis in Rattus norvegicus albino (rat) assessed as total urinary output at 20 mg/kg, po measured at 5-18 hr after drug administration by standard Lipschitz method (reference value: 1.26 +/-0.049 ml); format: functional, Urine
[4] = tested on: Rattus norvegicus; assay: Induction of diuresis in Rattus norvegicus albino (rat) assessed as urinary K+ excretion at 20 mg/kg, po measured at 0-5 hr after drug administration by standard Lipschitz method (reference value: 0.46 +/-0.006 mEq/L); format: functional, Urine
[5] = tested on: Rattus norvegicus; assay: Induction of diuresis action in Rattus norvegicus albino (rat) assessed as urinary excretion at 20 mg/kg, po measured at 5-18 hr after drug administration by standard Lipschitz method against untreated control (reference value: 1 no unit); format: functional, Urine
[6] = tested on: Rattus norvegicus; assay: Induction of diuresis activity in Rattus norvegicus albino (rat) assessed as urinary excretion at 20 mg/kg, po measured at 5-18 hr after drug administration by standard Lipschitz method against frusemide-treated control (reference value: 0.2 no unit); format: functional, Urine
[7] = tested on: Rattus norvegicus; assay: Induction of diuresis in Rattus norvegicus albino (rat) assessed as normal saline intake at 20 mg/kg, po measured at 0-5 hr after drug administration by standard Lipschitz method (reference value: 2.50 +/-0.036 ml); format: functional
[8] = tested on: Rattus norvegicus; assay: Induction of diuresis in Rattus norvegicus albino (rat) assessed as urinary excretion at 20 mg/kg, po measured at 5-18 hr after drug administration by standard Lipschitz method (reference value: 50.4%); format: functional, Urine
[9] = tested on: Rattus norvegicus; assay: Induction of diuresis activity in Rattus norvegicus albino (rat) assessed as urinary excretion at 20 mg/kg, po measured at 0-5 hr after drug administration by standard Lipschitz method against frusemide-treated control (reference value: 0.5 no unit); format: functional, Urine
[10] = tested on: Rattus norvegicus; assay: Induction of diuresis in Rattus norvegicus albino (rat) assessed as urinary K+ excretion at 20 mg/kg, po measured at 5-18 hr after drug administration by standard Lipschitz method (reference value: 0.22 +/-0.004 mEq/L); format: functional, Urine
[11] = tested on: Rattus norvegicus; assay: Induction of diuresis in Rattus norvegicus albino (rat) assessed as urinary Na+ excretion at 20 mg/kg, po measured at 0-5 hr after drug administration by standard Lipschitz method (reference value: 0.90 +/-0.003 mEq/L); format: functional, Urine
[12] = tested on: Rattus norvegicus; assay: Induction of diuresis in Rattus norvegicus albino (rat) assessed as total urinary output at 20 mg/kg, po measured at 0-5 hr after drug administration by standard Lipschitz method (reference value: 2.46 +/-0.125 ml); format: functional, Urine
[13] = tested on: Rattus norvegicus; assay: Induction of diuresis in Rattus norvegicus albino (rat) assessed as urinary excretion at 20 mg/kg, po measured at 0-5 hr after drug administration by standard Lipschitz method (reference value: 98.40%); format: functional, Urine
[14] = tested on: Rattus norvegicus; assay: Induction of diuresis in Rattus norvegicus albino (rat) assessed as urinary Na+ excretion at 20 mg/kg, po measured at 5-18 hr after drug administration by standard Lipschitz method (reference value: 0.65+/-0.006 mEq/L); format: functional, Urine
[15] = tested on: Rattus norvegicus; assay: Induction of diuresis in Rattus norvegicus albino (rat) assessed as urinary Cl- excretion at 20 mg/kg, po measured at 5-18 hr after drug administration by standard Lipschitz method (reference value: 0.38 +/-0.011 mEq/L); format: functional, Urine
[16] = tested on: Rattus norvegicus; assay: Induction of diuresis in Rattus norvegicus albino (rat) assessed as urinary Cl- excretion at 20 mg/kg, po measured at 0-5 hr after drug administration by standard Lipschitz method (reference value: 0.46 +/-0.005 mEq/L); format: functional, Urine

SMILES: COc1ccc(C2=NN(C(=O)COc3ccccc3)C(c3ccc(OCC(=O)O)c(OC)c3)C2)cc1 (configuration not stated)
- Activity [1]: 2.84 mL
- Ratio [2]: 1.8
- Activity [3]: 5.41 mL
- Activity [4]: 0.54 mEq/L
- Ratio [5]: 3.8
- Ratio [6]: 0.76
- Activity [7]: 2.84 mL
- Activity [8]: 190.49%
- Ratio [9]: 0.91
- Activity [10]: 1.35 mEq/L
- Activity [11]: 1.92 mEq/L
- Activity [12]: 5.13 mL
- Activity [13]: 180.63%
- Activity [14]: 2.62 mEq/L
- Activity [15]: 1.38 mEq/L
- Activity [16]: 0.96 mEq/L

SMILES: COc1cc(C2CC(c3ccc(Cl)cc3)=NN2C(=O)c2ccc(Cl)cc2)ccc1OCC(=O)O (configuration not stated)
- Activity [1]: 2.67 mL
- Ratio [2]: 2.2
- Activity [3]: 7.43 mL
- Activity [4]: 1.55 mEq/L
- Ratio [5]: 5.56
- Ratio [6]: 1.12
- Activity [7]: 2.67 mL
- Activity [8]: 278%
- Ratio [9]: 1.11
- Activity [10]: 1.76 mEq/L
- Activity [11]: 2.82 mEq/L
- Activity [12]: 6.06 mL
- Activity [13]: 226.96%
- Activity [14]: 3.26 mEq/L
- Activity [15]: 1.77 mEq/L
- Activity [16]: 1.94 mEq/L

SMILES: COc1ccc(C2=NN(C(=O)c3ccc(Cl)cc3)C(c3ccc(OCC(=O)O)c(OC)c3)C2)cc1 (configuration not stated)
- Activity [1]: 2.85 mL
- Ratio [2]: 0.4
- Activity [3]: 0.23 mL
- Activity [4]: 0.36 mEq/L
- Ratio [5]: 0.16
- Ratio [6]: 0.03
- Activity [7]: 2.85 mL
- Activity [8]: 8.07%
- Ratio [9]: 0.2
- Activity [10]: 0.068 mEq/L
- Activity [11]: 0.76 mEq/L
- Activity [12]: 1.21 mL
- Activity [13]: 42.45%
- Activity [14]: 0.11 mEq/L
- Activity [15]: 0.06 mEq/L
- Activity [16]: 0.36 mEq/L

SMILES: COc1cc(C2CC(c3ccc(Cl)cc3)=NN2C(=O)c2ccc(C)cc2)ccc1OCC(=O)O (configuration not stated)
- Activity [1]: 2.61 mL
- Ratio [2]: 2.2
- Activity [3]: 12.18 mL
- Activity [4]: 0.81 mEq/L
- Ratio [5]: 9.32
- Ratio [6]: 1.88
- Activity [7]: 2.61 mL
- Activity [8]: 466.66%
- Ratio [9]: 1.11
- Activity [10]: 2.66 mEq/L
- Activity [11]: 1.56 mEq/L
- Activity [12]: 5.83 mL
- Activity [13]: 223.37%
- Activity [14]: 4.31 mEq/L
- Activity [15]: 2.69 mEq/L
- Activity [16]: 0.76 mEq/L

SMILES: COc1cc(C2CC(c3ccc(O)cc3)=NN2C(=O)c2ccc(Cl)cc2)ccc1OCC(=O)O (configuration not stated)
- Activity [1]: 2.84 mL
- Ratio [2]: 0.9
- Activity [3]: 5.21 mL
- Activity [4]: 0.45 mEq/L
- Ratio [5]: 3.66
- Ratio [6]: 0.74
- Activity [7]: 2.84 mL
- Activity [8]: 183.45%
- Ratio [9]: 0.45
- Activity [10]: 0.56 mEq/L
- Activity [11]: 0.87 mEq/L
- Activity [12]: 2.5 mL
- Activity [13]: 89.28%
- Activity [14]: 1.95 mEq/L
- Activity [15]: 0.95 mEq/L
- Activity [16]: 0.46 mEq/L

SMILES: COc1cc(C2CC(c3ccc(Cl)cc3)=NN2C(=O)COc2ccccc2)ccc1OCC(=O)O (configuration not stated)
- Activity [1]: 2.94 mL
- Ratio [2]: 2.5
- Activity [3]: 10.17 mL
- Activity [4]: 1.74 mEq/L
- Ratio [5]: 6.92
- Ratio [6]: 1.39
- Activity [7]: 2.94 mL
- Activity [8]: 345.91%
- Ratio [9]: 1.26
- Activity [10]: 1.96 mEq/L
- Activity [11]: 3.26 mEq/L
- Activity [12]: 7.28 mL
- Activity [13]: 247.61%
- Activity [14]: 3.82 mEq/L
- Activity [15]: 1.77 mEq/L
- Activity [16]: 1.66 mEq/L

SMILES: COc1cc(C2CC(c3ccc(Cl)cc3)=NN2C(=O)COc2ccc(C)cc2)ccc1OCC(=O)O (configuration not stated)
- Activity [1]: 2.86 mL
- Ratio [2]: 2
- Activity [3]: 8.15 mL
- Activity [4]: 1.32 mEq/L
- Ratio [5]: 5.68
- Ratio [6]: 1.14
- Activity [7]: 2.86 mL
- Activity [8]: 284.96%
- Ratio [9]: 1.01
- Activity [10]: 1.87 mEq/L
- Activity [11]: 2.61 mEq/L
- Activity [12]: 5.65 mL
- Activity [13]: 197.55%
- Activity [14]: 3.13 mEq/L
- Activity [15]: 1.68 mEq/L
- Activity [16]: 1.36 mEq/L

SMILES: COc1cc(C2CC(c3ccc(O)cc3O)=NN2C(=O)COc2ccccc2)ccc1OCC(=O)O (configuration not stated)
- Activity [1]: 2.74 mL
- Ratio [2]: 1.5
- Activity [3]: 7.65 mL
- Activity [4]: 0.55 mEq/L
- Ratio [5]: 5.58
- Ratio [6]: 1.12
- Activity [7]: 2.74 mL
- Activity [8]: 279.19%
- Ratio [9]: 0.76
- Activity [10]: 2.12 mEq/L
- Activity [11]: 1.92 mEq/L
- Activity [12]: 4.11 mL
- Activity [13]: 150%
- Activity [14]: 3.66 mEq/L
- Activity [15]: 1.69 mEq/L
- Activity [16]: 0.66 mEq/L

SMILES: COc1cc(C2CC(c3ccccc3)=NN2C(=O)c2ccccc2O)ccc1OCC(=O)O (configuration not stated)
- Activity [1]: 2.34 mL
- Ratio [2]: 0.5
- Activity [3]: 0.2 mL
- Activity [4]: 0.16 mEq/L
- Ratio [5]: 0.16
- Ratio [6]: 0.03
- Activity [7]: 2.34 mL
- Activity [8]: 8.54%
- Ratio [9]: 0.25
- Activity [10]: 0.12 mEq/L
- Activity [11]: 0.35 mEq/L
- Activity [12]: 1.16 mL
- Activity [13]: 49.57%
- Activity [14]: 0.16 mEq/L
- Activity [15]: 0.06 mEq/L
- Activity [16]: 0.16 mEq/L

SMILES: COc1cc(C2CC(c3ccc(O)cc3)=NN2C(=O)COc2ccc(C)cc2)ccc1OCC(=O)O (configuration not stated)
- Activity [1]: 2.88 mL
- Ratio [2]: 0.6
- Activity [3]: 0.33 mL
- Activity [4]: 0.25 mEq/L
- Ratio [5]: 0.22
- Ratio [6]: 0.04
- Activity [7]: 2.88 mL
- Activity [8]: 11.45%
- Ratio [9]: 0.3
- Activity [10]: 0.19 mEq/L
- Activity [11]: 0.45 mEq/L
- Activity [12]: 1.81 mL
- Activity [13]: 62.84%
- Activity [14]: 0.12 mEq/L
- Activity [15]: 0.07 mEq/L
- Activity [16]: 0.24 mEq/L

SMILES: NS(=O)(=O)c1cc(C(=O)O)c(NCc2ccco2)cc1Cl [FUROSEMIDE]
- Activity [1]: 2.75 mL
- Ratio [2]: 1.97
- Activity [3]: 6.81 mL
- Activity [4]: 1.27 mEq/L
- Ratio [5]: 4.94
- Ratio [6]: 1
- Activity [7]: 2.75 mL
- Activity [8]: 247.63%
- Ratio [9]: 1
- Activity [10]: 3.11 mEq/L
- Activity [11]: 2.44 mEq/L
- Activity [12]: 5.35 mL
- Activity [13]: 194.54%
- Activity [14]: 3.11 mEq/L
- Activity [15]: 1.83 mEq/L
- Activity [16]: 1.24 mEq/L

SMILES: COc1cc(C2CC(c3ccc(Cl)cc3)=NN2C(=O)Cc2ccccc2)ccc1OCC(=O)O (configuration not stated)
- Activity [1]: 2.84 mL
- Ratio [2]: 1.5
- Activity [3]: 6.23 mL
- Activity [4]: 0.74 mEq/L
- Ratio [5]: 4.38
- Ratio [6]: 0.88
- Activity [7]: 2.84 mL
- Activity [8]: 219.36%
- Ratio [9]: 0.76
- Activity [10]: 1.65 mEq/L
- Activity [11]: 1.26 mEq/L
- Activity [12]: 4.45 mL
- Activity [13]: 156.69%
- Activity [14]: 2.86 mEq/L
- Activity [15]: 1.96 mEq/L
- Activity [16]: 0.67 mEq/L
